Series [1] has as its system Salmonella typhimurium TA1537 strain. Conditions: TA1537 (TA1537 strain and/or TA98 strain); SCCP Opinion on Basic Brown 16, 2008; cited from earlier work.
For series [2] the following is noted: strain not stated; SCCP Opinion on Basic Brown 16, 2008; cited from earlier work.
In series [3] the test system is Salmonella typhimurium TA98 strain. As to conditions: TA98 (TA1537 strain and/or TA98 strain); SCCP Opinion on Basic Brown 16, 2008; cited from earlier work.
Series [4] shares this test system. Description: Ames test (reverse mutation test), TA98 strain. Format: cell-based. The text has this:
(§1) The Ames test is a test system for detecting a phenomenon that a histidine-requiring strain, which cannot grow without a specific amino acid (for example, histidine), is returned to a histidine-nonrequiring strain by a gene mutation due to a mutational substance. The Ames test is also called a reverse mutation test because a strain regains its original nature by a gene mutation. In the case of a metabolic activation test, a test substance, a test strain, and an enzyme for activating metabolism of drugs (S-9Mix) are mixed, and the mixture is cultured for 48 hours at 37° C. using an agar medium after preincubation for 20 minutes at 37° C. The number of induced revertant colonies is counted, and it is determined to be positive in the case where the ratio (MR value) of the number of the induced revertant colonies to the number of revertant colonies appearing in a negative control is 2 or more (refer to, for example, “Bacterial Reverse Mutation Test.” OECD GUIDELINE FOR TESTING OF CHEMICALS, no. 471, Adopted: 21, Jul. 1997).
(§2) The metabolic activation test is a test carried out by adding an enzyme for activating metabolism of drugs (that is, S-9Mix) which is obtained from a liver of a rat or the like in order to bring a metabolic system of drugs for microbes close to that of mammals.
(§3) With respect to Basic Brown 16 before and after purification, the Ames test was carried out using Salmonella typhimurium TA98 strain and Salmonella typhimurium TA1537 strain with and without an enzyme for activating metabolism of drugs (S-9Mix) in each strain.
(§4) The Ames test was carried out on the same condition also with respect to the component indicating positive in the Ames test and represented by the structural formula (III) among impurities contained in Basic Brown 16.
Background: In the Ames test, an excess of revertant colonies over the control signals mutagenicity.

Series [5] deals with Salmonella typhimurium TA1537 strain. Description: Ames test (reverse mutation test), TA1537 strain. It is filed as cell-based.
Excerpt: as §1, §2, §3, §4

Structures are written as SMILES. Read-outs that look alike come from different tables or passages of the source.

In the case of `C[N+](C)(C)c1ccc2ccc(O)c(N=Nc3ccc(N)cc3)c2c1.[Cl-]` [Basic Brown 16], the Ames test result in series [1], in series [2] and in series [3] was “positive” each time.
As to `CN(C)c1ccc2ccc(O)c(N=Nc3ccc(N)cc3)c2c1` [Component of structural formula (III)], the Ames test result in series [4] (TA98) and in series [5] (TA1537) was “positive (it is determined to be positive in the case where the ratio (MR value) of the number of the induced revertant colonies to the number of revertant colonies appearing in a negative control is 2 or more)” each time. Besides, the “MR value (ratio of induced revertant colonies to negative control)” value in series [4] (TA98, +S9 (with S-9Mix)) stood at 53.0; in series [4] (TA98, −S9 (without S-9Mix)), 0.9; in series [5] (TA1537, +S9 (with S-9Mix)), 10.5; in series [5] (TA1537, −S9 (without S-9Mix)), 1.2.

The record behind these values is patent publication US8834579B2, “Dye composition for hair dyeing and method for producing the same” (Hodogaya Chemical Co., Ltd., priority 2012, dated 2014).
